The subject of one data set is MOLP8. To be noted: MOLP8, 24 hours, Table 1. The method, then:
(§1) The luminescent readings obtained in the assay were used to measure the percentage of cell death following treatment with increasing doses of BOLD-100 for 24 hours. Each cell line was treated in triplicate and the average cell death was used to calculate the IC50 or […] inhibitory concentration dose in these cell lines using a nonlinear regression fit.

A further data set has as its system H1112. Conditions: H1112, 24 hours, Table 1. The method, then: as §1
The next data set concerns JJN3. To be noted: JJN3, 24 hours, Table 1. The method, then:
as §1

A further data set deals with XG-2. Conditions: XG-2, 24 hours, Table 1. The method, then: as §1
For the next data set, the system named is XG-1. To be noted: XG-1, 24 hours, Table 1. The method, then: as §1
The test system of another data set is KMS27. To be noted: KMS27, 24 hours, Table 1. The method, then: as §1
Data set [1] deals with bone marrow cell line HS-5. Conditions: bone marrow stromal cell line HS-5, FIG. 5. The method, then: (§2) Bone marrow stromal cells are understood to provide a protective environment for cells, insulating bone marrow cells from drug effects. […] To do this, a co-culture assay was carried out, in which MM cells were grown in co-culture with a bone marrow stromal cell line HS-5. MM cell lines adhere to stromal cells in culture and the stromal cells can provide a protective effect against drug induced apoptosis/growth inhibition. Dose response curves were generated for the PI-sensitive cell line MM.1 S, and the two PI resistant lines MM.1S BR and MM.1S CR in presence of HS-5 by standard CTG assay.

Data set [2] concerns MM.1S in presence of HS-5. Conditions: MM.1S in co-culture with HS-5, FIG. 5. The method, then: as §2
Data set [3] has as its system MM.1S CR in presence of HS-5. To be noted: MM.1S CR in co-culture with HS-5, FIG. 5. The method, then: as §2
In data set [4] the test system is MM.1S BR in presence of HS-5. To be noted: MM.1S BR in co-culture with HS-5, FIG. 5. The method, then: as §2
Data set [5] relates to MM.1S BR (bortezomib resistant). From the text:
(§3) Proteasome inhibitors (PI) and immunomodulatory drugs (IMiD) are used as standards of care treatments in MM disease in the clinic. […] Specifically, the MM.1S cell line was developed to acquire partial resistance to proteasome inhibitors bortezomib (MM.1S BR) and carfilzomib (MM.1S CR) by treating the MM.1S cell line with increasing doses of the drugs for about 6 months and the OPM2 cell line was developed to acquire partial resistance to IMiD lenalidomide (OPM2 LR) and pomalidomide (OPM2 PR) by treating the OPM2 cell line with increasing doses of the drugs for about 6 months.

In a further data set the test system is OPM2. Conditions: OPM2, 24 hours. The method, then:
as §1, §3

The test system of a further data set is MM.1S. The method, then:
as §1, §3

The test system of data set [6] is OPM2 LR (lenalidomide resistant). To be noted: 24 hours. The method, then:
as §1, §3

Data set [7] has as its system OPM2 PR (pomalidomide resistant). Conditions: read-out: BOLD-100 IC50, 24 hours, Example 2, FIG. 2B. The method, then:
as §1, §3

[8] abbreviates: read-out: BOLD-100 IC50, 24 hours, Example 2, FIG. 2A.

Read-outs that look alike come from different tables or passages of the source.

With `[Cl][Ru]([Cl])([Cl])[Cl].[Na+].c1ccc2[nH]ncc2c1.c1ccc2[nH]ncc2c1` [BOLD-100, Sodium trans-[tetrachloridobis(1H-indazole)ruthenate(III)]], the IC50 with MOLP8 was 115 µM; in the data set on H1112 it was 72 µM; in the data set on JJN3 it was “Not reached”; in the data set on XG-2, 54 µM; in the data set on XG-1, 49 µM; with KMS27, 128 µM. The IC50 in [5] (setting [8]) was found to be 23 µM; in data set [5] (read-out: BOLD-100 IC50, 24 hours, FIG. 2A legend), 23 µM; with OPM2 (Table 1), 130 µM; in the data set with OPM2 (read-out: BOLD-100 IC50, Example 2, FIG. 2B), 120 µM; in the data set with MM.1S (24 hours, Table 1), 106 µM; in the data set with MM.1S (setting [8]), 83 µM. Further, the 50% inhibitory concentration (IC50) in data set [6] (Table 1) was 108 µM; in data set [7] it was 51 µM. The impact on viability result was “minimal impact” in data set [1], “negatively impact the viability” in data set [2], “negatively impact the viability” in data set [3] and “negatively impact the viability” in data set [4]. The “sensitivity to BOLD-100 compared to parental OPM2” value in [6] (FIG. 2B) was “higher sensitivity”.
